According to patent publication US8691576B2, “Regeneration and mass propagation of Jatropha curcas through somatic embryogenesis” (Joil (S) Pte Ltd., priority 2008, dated 2014):

System: Jatropha curcas immature zygotic embryo and endosperm explants
Assay: Effect of 2,4-D concentration and zygotic embryo size on somatic embryo and calli formation
Assay type: cell-based
Design: key to Explant Development Root Length / Explant Development Hypocotyl Length / Explant Development Calli Size: The relative size of explants and calli are indicated by the number of + symbols.; ++: The relative size of explants and calli are indicated by the number of + symbols.; +++: The relative size of explants and calli are indicated by the number of + symbols.; ++++: The relative size of explants and calli are indicated by the number of + symbols.; +++++: The relative size of explants and calli are indicated by the number of + symbols
Details: end of 3rd week
Description: Developing fruits were surfaced-sterilized and dissected to yield 200 immature zygotic embryos that were shorter than 1.5 cm in length. The embryos were separated into two groups, “<0.5 cm” and “0.5-1.5 cm”. The endosperm and zygotic embryo explants were cultured on solid media with various concentration of 2,4-D. On the 5th day, the embryos, which became greenish, enlarged and hardened, were removed from the endosperms and cut into small pieces of about 0.25 cm^2 each. The endosperm and embryo explants were cultured separately on the same media in the dark at 28° C. It was confirmed that most somatic embryos were produced on the endosperm explants where the embryos had been detached. It is apparent that, although 2,4-D was not essential for initiation of somatic embryos; […] concentration of it causes excessive expansion of explants.

In the case of `O=C(O)COc1ccc(Cl)cc1Cl` [2,4-D, 2,4-dichlorophenoxyacetic acid], the “Explant Development Calli Size” value (2,4-D 0.1 mg/L) was “++”, the “Explant Development Hypocotyl Length” value (2,4-D 0.1 mg/L) was “+++++” and the “Explant Development Root Length” value (2,4-D 0.1 mg/L) was “++++”. For the same molecule, the “Explant Development Calli Size” value (2,4-D 0.2 mg/L) was “++”, the “Explant Development Hypocotyl Length” value (2,4-D 0.2 mg/L) was “++++” and the “Explant Development Root Length” value (2,4-D 0.2 mg/L) was “+++”. The “Explant Development Calli Size” value (2,4-D 0.5 mg/L) was “+++”, the “Explant Development Hypocotyl Length” value (2,4-D 0.5 mg/L) was “+++” and the “Explant Development Root Length” value (2,4-D 0.5 mg/L) was “++”. For the same molecule, the “Explant Development Calli Size” value (2,4-D 1 mg/L) was “++++”, the “Explant Development Hypocotyl Length” value (2,4-D 1 mg/L) was “+++” and the “Explant Development Root Length” value (2,4-D 1 mg/L) was “++”. The “Explant Development Calli Size” value (2,4-D 2 mg/L) was “++++”, the “Explant Development Hypocotyl Length” value (2,4-D 2 mg/L) was “+” and the “Explant Development Root Length” value (2,4-D 2 mg/L) was “+”. For the same molecule, the “Explant Development Calli Size” value (2,4-D 5 mg/L) was “+++”, the “Explant Development Hypocotyl Length” value (2,4-D 5 mg/L) was “+” and the “Explant Development Root Length” value (2,4-D 5 mg/L) was “+”. The “Explant Development Calli Size” value (2,4-D 10 mg/L) was “+++”, the “Explant Development Hypocotyl Length” value (2,4-D 10 mg/L) was “+” and the “Explant Development Root Length” value (2,4-D 10 mg/L) was “+”. For the same molecule, the “Explant Development Calli Size” value (2,4-D 15 mg/L) was “++”, the “Explant Development Hypocotyl Length” value (2,4-D 15 mg/L) was “+” and the “Explant Development Root Length” value (2,4-D 15 mg/L) was “+”. The “Explant Development Calli Size” value (2,4-D 20 mg/L) was “+”, the “Explant Development Hypocotyl Length” value (2,4-D 20 mg/L) was “+” and the “Explant Development Root Length” value (2,4-D 20 mg/L) was “+”. For the same molecule, the Calli formation was “more favorable at about 0.5-10 mg/l”.
